pIC50: −log10 of the molar value.
Biological target: T1, HSD17B13 enzyme (Homo sapiens, UniProt Q7Z5P4)
T1 construct: His; made in house; host or cells: E. coli
T1 sequence (Q7Z5P4 20-300): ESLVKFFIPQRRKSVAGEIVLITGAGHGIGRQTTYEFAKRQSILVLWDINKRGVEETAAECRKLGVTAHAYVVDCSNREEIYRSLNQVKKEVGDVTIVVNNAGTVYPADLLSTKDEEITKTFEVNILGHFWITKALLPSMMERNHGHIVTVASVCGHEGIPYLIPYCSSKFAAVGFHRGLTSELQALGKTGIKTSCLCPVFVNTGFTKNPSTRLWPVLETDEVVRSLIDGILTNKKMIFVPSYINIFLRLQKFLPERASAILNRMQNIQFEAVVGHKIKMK
Assay: LC/MS estrone detection assay (conversion of estradiol to estrone by HSD17B13)
Assay type: biochemical
Settings: substrate 4 μM estradiol, 6 mM NAD+, 30 nM HSD17B13 enzyme, 2 hours at 26.5° C
Procedure: The liquid chromatography/mass spectrometry (LC/MS) estrone detection assay monitors the conversion of estradiol to estrone by HSD17B13. This assay was performed in a 96 wp format (Eppendorf deep well Plate 96/500) in an 80 μl reaction volume containing: 4 μM estradiol (E2; Cayman; Ser. No. 10/006,315); 6 mM NAD^+ (Sigma; #N0623), and 30 nM HSD17B13 enzyme (in-house; E. coli expressed His-tagged, purified, soluble protein), in a buffer containing 1M potassium phosphate buffer pH 7.4 and 0.5% vehicle (DMSO). Reactions were incubated for 2 hours at 26.5° C., and estradiol (E2) conversion to estrone (E1) was quantitated by LC-MS/MS based analyte detection for E1 using LCMS grade reagents. Reactions were terminated by the addition of two volumes of acetonitrile (MeCN; LCMS grade; CAS #75/05/8) containing deuterated (D4)-E1 as internal standard (Clear Synth; #CS-T-54273; 500 ng/mL final concentration). Samples were applied to pre-prepared Bond Elut-C18 extraction cartridges (3 mL; Agilent; Ser. No. 12/102,028), and washed and eluted in MeCN. Eluates were dried under nitrogen and re-suspended in 60% methanol (LCMS grade methanol; CAS #67/56/1) before submission for analysis. Standard curves for E1 were included for quantification. Analysis of samples was undertaken on a XBridge BEH C18 column (Waters; #186003033) using 0.1% Diethyl Amine in MeCN (mobile phase A; DEA CAS #109-89-7) and 0.1% Diethyl Amine in milli-Q water (mobile phase B) in a 3 min gradient up to 25% B. Analytes were detected in negative mode using MRM analysis, with E2 having a RT of 1.85 min and E1 having a RT of 2 min. Activity of the enzyme in the absence of NAD^+, was subtracted from samples to yield values for specific enzyme activity. Enzyme activity in the presence of test samples was expressed as a percentage of the uninhibited enzyme activity, and plotted versus inhibitor concentration. Non-linear regression was performed using the Morrison equation (see below) for tight binding inhibitors on GraphPad Prism software (GraphPad Software, La Jolla, Calif.). All assessments were undertaken in duplicate evaluations which were pooled during the extraction process and subsequently injected as duplicates for LC-MS/MS analysis. Y=Vo*(1−((((Et+X+Q)−(((Et+X+Q)^2)−4*Et*X)^0.5))/(2*Et))) Morrison equation:
Y=Activity in the presence of inhibitor; Vo=Activity in absence of inhibitor; Et=Total enzyme concentration; X=inhibitor concentration; and Q=(Ki*(1+(S/Km))), where Ki is the inhibition constant, Km is the Michaelis constant, and S is the substrate concentration.

Row | pIC50 | Compound
1 | ≥ 7.00 | O=C(Nc1cc(Cl)sc1C(=O)NCCc1ccc(F)cc1F)c1ccc(O)c(F)c1 [Example 39, 5-chloro-N-(2,4-difluorophenethyl)-3-(3-fluoro-4-hydroxybenzamido)thiophene-2-carboxamide]
2 | 6.00 to 7.00 | O=C(Nc1cc(Cl)sc1C(=O)NCCc1ccc(F)cc1Cl)c1ccc(O)c(F)c1 [Example 34, 5-chloro-N-(2-chloro-4-fluorophenethyl)-3-(3-fluoro-4-hydroxybenzamido) thiophene-2-carboxamide]
3 | ≥ 7.00 | O=C(Nc1cc(Cl)sc1C(=O)NCCc1ccc(Cl)cc1Cl)c1ccc(O)c(F)c1 [Example 36, 5-chloro-N-(2,4-dichlorophenethy1)-3-(3-fluoro-4-hydroxybenzamido)thiophene-2-carboxamide]
4 | ≥ 7.00 | O=C(Nc1ccsc1C(=O)N[C@@H](CO)c1ccccc1)c1ccc(O)c(Cl)c1 [Example 49, (R)-3-(3-chloro-4-hydroxybenzamido)-N-(2-hydroxy-1-phenylethyl)thiophene-2-carboxamide]
5 | ≥ 7.00 | O=C(Nc1sc(Cl)cc1C(=O)NCCc1ccccc1OC(F)(F)F)c1ccc(O)c(F)c1 [Example 46, 5-chloro-2-(3-fluoro-4-hydroxybenzamido)-N-(2-(trifluoromethoxy)phenethyl) thiophene-3-carboxamide]
6 | 6.00 to 7.00 | COc1ccccc1CCNC(=O)c1c(NC(=O)c2ccc(O)c(Cl)c2)sc2c1CCN(C)C2 [Example 15, 2-(3-chloro-4-hydroxybenzamido)-N-(2-methoxyphenethyl)-6-methyl-4,5,6,7-tetrahydrothieno[2,3-c]pyridine-3-carboxamide]

Continued, compound first:

Row | Compound | pIC50
7 | O=C(Nc1cc(Cl)sc1C(=O)NC1(c2ccc(F)cc2)CC1)c1cc(F)c(O)c(F)c1 [Example 35, 5-chloro-3-(3,5-difluoro-4-hydroxybenzamido)-N-(1-(4-fluorophenyl)cyclopropyl)thiophene-2-carboxamide] | ≥ 7.00
8 | O=C(Nc1cc(Cl)sc1C(=O)NCCc1ccccc1C(F)(F)F)c1ccc(O)c(Cl)c1 [Example 45, 5-chloro-3-(3-chloro-4-hydroxybenzamido)-N-(2-(trifluoromethyl)phenethyl) thiophene-2-carboxamide] | ≥ 7.00
9 | CC(C)(C)CCNC(=O)c1sccc1NC(=O)c1cc(F)c(O)c(Cl)c1 [Example 47, 3-(3-chloro-5-fluoro-4-hydroxybenzamido)-N-(3,3-dimethylbutyl)thiophene-2-carboxamide] | ≥ 7.00
10 | O=C(Nc1cc(Cl)sc1C(=O)NCCN1CCOCC1)c1ccc(O)c(F)c1 [Example 38, 5-chloro-3-(3-fluoro-4-hydroxybenzamido)-N-(2-morpholinoethyl)thiophene-2-carboxamide] | ≥ 7.00
11 | O=C(Nc1cc(Cl)sc1C(=O)NCCc1ccccc1C(F)(F)F)c1cc(F)c(O)c(F)c1 [Example 44, 5-chloro-3-(3,5-difluoro-4-hydroxybenzamido)-N-(2-(trifluoromethyl)phenethyl) thiophene-2-carboxamide] | ≥ 7.00
12 | CN1CCN(CCNC(=O)c2cc(Cl)sc2NC(=O)c2ccc(O)c(F)c2)CC1 [Example 42, 5-chloro-2-(3-fluoro-4-hydroxybenzamido)-N-(2-(4-methylpiperazin-1-yl)ethyl)thiophene-3-carboxamide] | 5.00 to 6.00
13 | O=C(Nc1ccsc1C(=O)N[C@H](CO)c1ccccc1)c1ccc(O)c(Cl)c1 [Example 48, (S)-3-(3-chloro-4-hydroxybenzamido)-N-(2-hydroxy-1-phenylethyl) thiophene-2-carboxamide] | 6.00 to 7.00
14 | CN1CCN(CCNC(=O)c2sc(Cl)cc2NC(=O)c2ccc(O)c(F)c2)CC1 [Example 37, 5-chloro-3-(3-fluoro-4-hydroxybenzamido)-N-(2-(4-methylpiperazin-1-yl)ethyl)thiophene-2-carboxamide] | 6.00 to 7.00
15 | O=C(Nc1sc(Cl)cc1C(=O)NCCc1ccccc1F)c1ccc(O)c(F)c1 [Example 43, 5-chloro-2-(3-fluoro-4-hydroxybenzamido)-N-(2-fluorophenethyl)thiophene-3-carboxamide] | ≥ 7.00
